These results are taken from US11503826B2, “Low volatility auxin herbicide formulations” (priority 2009, dated 2022).

Series [1] can be described thus: Aqueous solubility of dicamba acid and dicamba salts. The note with it: for Comments (crystal formation) / solubility 0° C. a.e. / solubility 0° C. a.i. / solubility 20° C. a.e. / solubility 20° C. a.i.: Table 10a; for Comments (crystal formation): dicamba salt solutions; for solubility 0° C. a.e. / solubility 0° C. a.i. / solubility 20° C. a.e. / solubility 20° C. a.i.: dicamba salt; for solubility 0° C. a.e. / solubility 0° C. a.i.: equilibrated 5 to 7 days at 0° C.; for solubility 0° C. a.e. / solubility 20° C. a.e.: acid equivalent; for solubility 0° C. a.i. / solubility 20° C. a.i.: active ingredient; for solubility 20° C. a.e. / solubility 20° C. a.i.: equilibrated 5 to 7 days at 20° C.; for solubility 20° C. a.e.: 0.45 micron filter, HPLC; for aqueous solubility wt % a.i. @20° C.: dicamba salts. An excerpt:
The solution was then passed through a 0.45 micron filter and assayed by HPLC for soluble dicamba.

The nature of series [2]: Distillation volatility: dicamba in distillate by HPLC/MS. To be noted: for ppm Dicamba in distillate: Table 4h summary, 5% a.e. salt solution. Type of series: physicochemical. As for the experimental part: The pH was measured on a standard Orion Model 320 pH meter of each neat solution.
Simple distillation using a short path still was used to collect the water distillate containing the dicamba in the vapor phase of the salt solutions. A 50 mL distillation flask was used. The distillation receiver was a “cow” type with four 2 mL graduated sections. The solutions were heated at the 30% setting of the GlassCol heating unit and the boiling point of each distillation was noted. The first 2 ml of distillate was collected, and the receiver rotated to avoid collection of any further distillate in that section as the distillation flask cooled. The 2 mL sample was quantitatively transferred by pipette to HPLC vials for later analysis. Between each distillation the distillation apparatus was washed with 10 volumes of tap water, 10 volumes of distilled water, rinsed with acetone, and dried in a 60° C. oven. Each distillation was run in triplicate.
The distillate was collected and analyzed for dicamba concentration using HPLC/Mass Spectroscopy (MS). The HPLC column was an Agilent Zorbax Eclipse XDB-C8, 4.6×150 mm, 5u, PN 993967-90. Mobile phase A was 0.1% formic acid in D.I. water. Mobile phase B was 0.1% formic acid in acetonitrile. A flow rate of 1.2 mL/min was used and an injection volume of 5, 10, 15 or 25 ul was used depending on the dicamba level in the sample. The following gradient was used: […]
The MS parameters were as follows: Type SIR; ES-ion mode; 0.05 second inter channel delay; 0.05 second interscan time; 0.5 span (Da); 10 minutes elapsed time; and 6-6000 ppb calibration range. […] Channel 2 mass was 177 (Da); Dwell was 0.25(s); Cone(V)=tune and; 0.05(s) delay.

Series [3] is classed as physicochemical. The note with it: 5 mL sample, air pulled through tube over PUF approximately 1 day; wt % a.e.: salts 35.8, BANVEL 40, acid 99. As for the experimental part: In a further set of experiments, measurements of dicamba concentration in the gas phase (air) above 38.5 wt % a.e. solutions of various dicamba salts was measured. 5 mL of each sample of dicamba was placed into a 50 mL plastic centrifuge tube with four holes approximately ⅛ in diameter drilled into the tube at the 10 mL line. A 22 mm×30 mm PUF (SKC ct. #226-124) was placed into a glass tube of app. 20 mm diameter with parafilm wrapped around the outside to obtain a snug fit into the top of the centrifuge tube. A hose was connected to the other end of the glass tube leading to a vacuum line. The air flow was regulated to app. 2 L/min using a flow controller (about 0.4 L air/min-mL sample). Air was pulled through the tube at […] for approximately 1 day. Note that the air conditions of flow rate, temperature, pressure and composition (e.g., relative humidity) are not narrowly critical as long as the various samples are analyzed under similar conditions. For instance, air at from about 5° C. to about 40° C., from about 0.5 to about 1.5 bar pressure, from about 0% to about 95% relative humidity, and at a flow rate of from about 0.1 to 10 L/min-mL sample could be suitably used for volatility analysis. The PUF was removed from the glass tube, extracted with 20 mL methanol and the resulting solution analyzed for dicamba concentration by LC-MS. The results are shown in Table 4i below where “wt % a.e.” refers to the dicamba concentration, “μg/mL” refers to the dicamba concentration in the distillate, “μg dicamba” refers to the total dicamba extracted from the PUF by 20 mL methanol, and “ng/L air” and “moles/L air” refer to the dicamba concentration in the gas phase above the solution.

SMILES strings stand for the structures. Where a name gives a salt, the structure may show the parent alone.

In the case of `NCCCCCCN` [HMDA], in series [1], the “Comments (crystal formation)” value is “Pasty solid”, the “solubility 0° C. a.e.” value amounted to 11.2 wt %, the “solubility 0° C. a.i.” value was found to be 14.1 wt % and the “solubility 20° C. a.e.” value was 14.1 wt %. In addition, the “solubility 20° C. a.i.” value in series [1] was 17.8 wt %.
`COc1c(Cl)ccc(Cl)c1C(=O)O.NCCOCCO` [Dicamba DGA salt, reference compound]: the “aqueous solubility Approximate g a.e./L @20° C.” value in series [1] is 700 g a.e./L. Moreover, the “aqueous solubility wt % a.e. @20° C.” value in series [1] is reported as 56.5 wt % a.e; in series [1] (Table 10b, second experiment, dicamba acid and salts), 56.5 wt % a.e. Besides, the “aqueous solubility wt % a.i. @20° C.” value in series [1] (Table 10b, second experiment) was 83.4 wt % a.i. Further, the “crystal formation from concentrated salt solution” value in series [1] (solubility experiment, Example 10) was “several weeks”.
For `CC(C)N` [IPA], the “Mean Dicamba in Distillate” value came to 1.42 ppm in series [2] (1% a.e. dicamba, solution pH 3.41); 0.42 ppm in series [2] (1% a.e. dicamba, solution pH 4.40); 0.37 ppm in series [2] (1% a.e. dicamba, solution pH 5.13); 0.72 ppm in series [2] (1% a.e. dicamba, solution pH 8.10); 1.22 ppm in series [2] (1% a.e. dicamba, solution pH 9.13); 3.65 ppm in series [2] (2% a.e. dicamba, solution pH 3.37). The “Mean Dicamba in Distillate” value in series [2] (2% a.e. dicamba, solution pH 4.36) worked out at 1.42 ppm; in series [2] (2% a.e. dicamba, solution pH 5.10) it was 0.94 ppm; in series [2] (2% a.e. dicamba, solution pH 8.13), 0.75 ppm; in series [2] (2% a.e. dicamba, solution pH 9.20) it was 3.43 ppm; in series [2] (5% a.e. dicamba, solution pH 3.44) it was 5.85 ppm; in series [2] (5% a.e. dicamba, solution pH 4.33) it was 3.14 ppm. Besides, the “Mean Dicamba in Distillate” value in series [2] (5% a.e. dicamba, solution pH 4.94) is 3.77 ppm; in series [2] (5% a.e. dicamba, solution pH 8.24), 2.47 ppm; in series [2] (5% a.e. dicamba, solution pH 9.28), 12.57 ppm. Further, the “ppm Dicamba in distillate” value in series [2] (pH 8.24) is recorded as 2.5 ppm.
Take `COc1c(Cl)ccc(Cl)c1C(=O)O` [Dicamba acid, 3,6-dichloro-2-methoxybenzoic acid]: in series [3], the “dicamba” value worked out at 15.3 µg/mL; the “dicamba concentration in gas phase, moles/L air” value is 1.92 × 10^−10 moles/L air; the “dicamba concentration in gas phase, ng/L air” value is 42.4 ng/L air; the μg dicamba came out at 305.4 µg. Moreover, in series [1] (listed as acid), the “aqueous solubility Approximate g a.e./L @20° C.” value was 4.5 g a.e./L and the “aqueous solubility wt % a.e. @20° C.” value is on record as 0.4 wt % a.e. The “aqueous solubility wt % a.e. @20° C.” value in series [1] (Table 10b, second experiment, dicamba acid and salts, listed as acid) was determined as 0.4 wt % a.e.
In the case of `COc1c(Cl)ccc(Cl)c1C(=O)O` [Dicamba potassium salt], the “ppm Dicamba in distillate” value in series [2] (pH 7.06) came out at 0.6 ppm. For the same compound, in series [1] (listed as potassium dicamba), the “aqueous solubility Approximate g a.e./L @20° C.” value was 720 g a.e./L and the “aqueous solubility wt % a.e. @20° C.” value was determined as 54.6 wt % a.e. Besides, in series [1] (listed as K), the “Comments (crystal formation)” value is reported as “Crystals form on”, the “solubility 0° C. a.e.” value came out at 52.7 wt %, the “solubility 0° C. a.i.” value is 61.8 wt % and the “solubility 20° C. a.e.” value is listed as 54.6 wt %. Moreover, in series [1] (listed as K), the “solubility 20° C. a.i.” value turned out to be 64 wt %. In addition, in series [1] (Table 10b, second experiment, dicamba acid and salts, listed as potassium salt), the “aqueous solubility wt % a.e. @20° C.” value is 54.6 wt % a.e. In addition, in series [1] (Table 10b, second experiment, listed as potassium salt), the “aqueous solubility wt % a.i. @20° C.” value is 64 wt % a.i.
As for `CNC` [DMA], the “Mean Dicamba in Distillate” value in series [2] (1% a.e. dicamba, solution pH 3.25) is listed as 4.50 ppm; in series [2] (1% a.e. dicamba, solution pH 4.36), 0.57 ppm; in series [2] (1% a.e. dicamba, solution pH 6.11) it was 0.30 ppm; in series [2] (1% a.e. dicamba, solution pH 8.53), 0.73 ppm; in series [2] (1% a.e. dicamba, solution pH 10.12), 1.32 ppm; in series [2] (2% a.e. dicamba, solution pH 3.20) it was 9.19 ppm. Further, the “Mean Dicamba in Distillate” value in series [2] (2% a.e. dicamba, solution pH 4.25) is listed as 1.08 ppm; in series [2] (2% a.e. dicamba, solution pH 5.97) it was 0.83 ppm; in series [2] (2% a.e. dicamba, solution pH 8.66), 1.98 ppm; in series [2] (2% a.e. dicamba, solution pH 10.24), 4.88 ppm; in series [2] (5% a.e. dicamba, solution pH 3.18), 20.10 ppm; in series [2] (5% a.e. dicamba, solution pH 4.22), 2.67 ppm. In addition, the “Mean Dicamba in Distillate” value in series [2] (5% a.e. dicamba, solution pH 5.58) is 2.06 ppm; in series [2] (5% a.e. dicamba, solution pH 8.69) it was 8.43 ppm; in series [2] (5% a.e. dicamba, solution pH 10.17), 12.34 ppm. The entries for the “ppm Dicamba in distillate” value in series [2] (pH 5.58) and in series [2] (pH 8.69) were 2.1 ppm and 8.4 ppm, respectively.
